# Like-named read-outs stand apart in the source and are kept apart here.
# What was measured:
# [1] = tested on: HCV replicon in Huh7 cells; experiment: HCV replicon cell-based assay (FRET); parameters: species or system HCV strain 1b; details: Hepatitis C virus
# Excerpt: An HCV replicon whole cell system was established as described by Lohmann V, Korner F, Koch J, Herian U, Theilmann L, Bartenschlager R., Science 285(5424):110–3 (1999). This system enabled us to evaluate the effects of our HCV Protease compounds on HCV RNA replication. Briefly, using the HCV strain 1b sequence described in the Lohmann paper (Assession number:AJ238799), an HCV cDNA was generated encoding the 5′ internal ribosome entry site (IRES), the neomycin resistance gene, the EMCV (encephalomyocarditis viurs)-IRES and the HCV nonstructural proteins, NS3–NS5B, and 3′ non-translated region (NTR). In vitro transcripts of the cDNA were transfected into the human hepatoma cell line, Huh7. […] Resulting cell lines were characterized for positive and negative strand RNA production and protein production over time.
# Huh7 cells, constitutively expressing the HCV replicon, were grown in Dulbecco's Modified Eagle Media (DMEM) containing 10% Fetal calf serum (FCS) and 1 mg/ml G418 (Gibco-BRL). Cells were seeded the night before (1.5×10^4 cells/well) in 96-well tissue-culture sterile plates. Compound and no compound controls were prepared in DMEM containing 4% FCS, 1:100 Penicillin/Streptomysin, 1:100 L-glutamine and 5% DMSO in the dilution plate (0.5% DMSO final concentration in the assay). Compound/DMSO mixes were added to the cells and incubated for 4 days at 37° C. After 4 days, plates were rinsed thoroughly with Phosphate-Buffered Saline (PBS) (3 times 150 μl). The cells were lysed with 25 μl of a lysis assay reagent containing the FRET peptide (RET S1, as described for the in vitro enzyme assay). The lysis assay reagent was made from 5× cell Luciferase cell culture lysis reagent (Promega #E153A) diluted to 1× with distilled water, NaCl added to 150 mM final, the FRET peptide diluted to 10 μM final from a 2 mM stock in 100% DMSO. The plate was then placed into the Cytofluor 4000 instrument which had been set to 340 nm excitation/490 nm emission, automatic mode for 21 cycles and the plate read in a kinetic mode. EC50 determinations were carried out as described for the IC50 determinations. […]
# The percentage inhibition was calculated using the formula below: […]
# The values were graphed and analyzed using XLFit to obtain the EC50 value.
# [2] = target: T1, porcine pancreatic elastase (PPE) (Sus scrofa, UniProt P00772); experiment: Specificity assay, porcine pancreatic elastase; type: biochemical; details: 2 h enzyme-inhibitor pre-incubation
# T1 construct: purchased Sigma
# T1 sequence (P00772 27-266): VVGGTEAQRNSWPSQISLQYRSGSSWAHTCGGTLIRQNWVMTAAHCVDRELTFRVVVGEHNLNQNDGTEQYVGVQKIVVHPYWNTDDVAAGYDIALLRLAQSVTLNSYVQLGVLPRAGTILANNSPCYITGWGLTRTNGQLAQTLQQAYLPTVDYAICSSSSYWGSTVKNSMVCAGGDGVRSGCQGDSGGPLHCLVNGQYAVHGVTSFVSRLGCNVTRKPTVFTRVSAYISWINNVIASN
# Procedure: (§1) The specificities of compounds of the present invention were determined against a variety of serine proteases: human neutrophil elastase (HNE), porcine pancreatic elastase (PPE) and human pancreatic chymotrypsin and one cysteine protease: human liver cathepsin B. In all cases a 96-well plate format protocol using colorimetric p-nitroaniline (pNA) substrate specific for each enzyme was used as described previously (PCT Patent Application No. WO 00/09543) with some modifications to the serine protease assays. All enzymes were purchased from Sigma while the substrates were from Bachem.
# (§2) Each assay included a 2 h enzyme-inhibitor pre-incubation at room temperature followed by addition of substrate and hydrolysis to ˜30% conversion as measured on a Spectramax Pro microplate reader. Compound concentrations varied from 100 to 0.4 μM depending on their potency. […]
# (§3) The percentage of inhibition was calculated using the formula: [1−((UVinh−UVblank)/(UVctl−UVblank))]×100 […]
# [3] = tested on: human pancreatic chymotrypsin; experiment: Specificity assay, chymotrypsin; type: biochemical; details: 2 h enzyme-inhibitor pre-incubation
# Procedure: as §1, §2, §3
smiles,measurement,setting,value
C=CC1C[C@]1(NC(=O)[C@@H]1C[C@@H](Oc2cc(-c3ccccc3)nc3cc(OC)ccc23)CN1C(=O)[C@@H](NC(=O)OC)C(C)(C)C)C(=O)NS(=O)(=O)N(C)Cc1ccccc1 (stereo partly shown) [Compound 9],EC50,"[1]; Huh-7, 96 h, 4 days, read-out: Activity Range EC50",150 to 1500 nM
same,EC50,"[1]; Huh-7, read-out: EC50 value in the replicon assay",403 nM
same,IC50,[2],> 200000 nM
same,IC50,[3],> 200000 nM
